Experimental data: the NIST ThermoML archive (doi:10.1016/j.jct.2013.10.013)

How the values were obtained:
[1] = xn = mol fraction of the nth substance listed; conditions: 101 kPa, Liquid, Vibrating tube method
[2] = 283.15 K; 101 kPa; Liquid; Vibrating tube method

O [water] + CC(C)NCCO
Conditions	mass density [kg/m3]
[1], 283.15 K, x2 = 0	999.699

CCCCOCCO [2-butoxyethan-1-ol] + O
mass density [kg/m3], [1]
Conditions	x1 = 0.000906	x1 = 0.001283	x1 = 0.001685	x1 = 0.001942	x1 = 0.003834	x1 = 0.006957	x1 = 0.009993	x1 = 0.01324
283.15 K	999.515	999.44	999.376	999.379	999.137	998.855	998.677	998.516
288.15 K	998.873	998.804	998.733	998.742	998.449	998.058	997.764	997.453
293.15 K	997.98	997.897	997.814	997.774	997.436	996.956	996.553	996.129
298.15 K	996.815	996.726	996.633	996.592	996.204	995.629	995.12	994.56
303.15 K	995.386	995.295	995.201	995.143	994.715	994.053	993.447	992.75

O [water] + CC(C)COCCO
Conditions	mass density [kg/m3]
[1], 283.15 K, x2 = 0	999.699

O [water]
Conditions	mass density [kg/m3]
[2]	999.699

CC(C)NCCO [2-isopropylaminoethanol] + O
mass density [kg/m3], [1]
Conditions	x1 = 0.00785	x1 = 0.00993	x1 = 0.0147	x1 = 0.02052	x1 = 0.02925	x1 = 0.04009	x1 = 0.04971	x1 = 0.0589	x1 = 0.06926	x1 = 0.08132
283.15 K	998.279	997.915	997.627	997.186	997.048	997.046	996.952	996.873	996.18	994.687
288.15 K	997.569	997.164	996.747	996.156	995.726	995.322	994.86	994.475	993.417	991.662
293.15 K	996.602	996.129	995.555	994.798	994.178	993.399	992.61	991.925	990.602	988.598
298.15 K	995.343	994.859	994.252	993.36	992.43	991.335	990.229	989.248	987.663	985.438
303.15 K	993.837	993.31	992.597	991.578	990.428	989.011	987.652	986.463	984.639	982.2

O [water] + CCCCOCCO
Conditions	mass density [kg/m3]
[1], 283.15 K, x2 = 0	999.699

CC(C)COCCO [2-(2-methylpropoxy)ethanol] + O
mass density [kg/m3], [1]
Conditions	x1 = 0.000617	x1 = 0.001164	x1 = 0.001812	x1 = 0.00198	x1 = 0.003969	x1 = 0.006759	x1 = 0.009969	x1 = 0.01319
283.15 K	999.515	999.412	999.296	999.307	999.013	998.702	998.438	998.199
288.15 K	998.897	998.784	998.655	998.645	998.299	997.897	997.523	997.151
293.15 K	998.017	997.888	997.743	997.724	997.322	996.836	996.347	995.851
298.15 K	996.846	996.707	996.548	996.506	996.06	995.497	994.904	994.282
303.15 K	995.459	995.292	995.136	995.092	994.592	993.958	993.254	992.505
